Measured values from patent US20250064762A1, “A SUBSTITUTED AROMATIC DICARBONIC ACID AMIDE AS AN INHIBITOR OF THE FERROPTOSIS SUPPRESSOR PROTEIN-1 (FSP1)” (JULIUS-MAXIMILIANS-UNIVERSITÄT WÜRZBURG, priority 2021, published 2025).

Tests used:
[1] = system: HT1080, Du145 or PC3 cells; assay: Cell viability with CPBA alone, no ferroptosis inducers; assay type: cell-based; conditions: 16 h
Procedure: (§1) Cells were seeded onto 96-well plates (5,000 cells per well), and treated with serial dilutions of ferroptosis-inducing compounds (erastin, BSO, RSL3, FIN56) or cytotoxic drugs (staurosporine, nocodazole, tunicamycin, paclitaxel, etoposide, menadione, rotenone, FCCP, carboplatin) in the absence or presence of CPBA or iFSP1 (100 μM or 10 μM, respectively; unless stated otherwise) or the DMSO solvent control. Ferroptotic cell death was evaluated by incubating in the absence or presence of liproxstatin-1 (100 nM), ferrostatin-1 (200 nM), or deferoxamine (100 μM). Cell viability was assessed after 16 h using AquaBluer as an indicator of viable cells according to the manufacturer's recommendations (MultiTarget Pharmaceuticals, LLC). Fluorescence (excitation, 540 nm; emission, 590 nm) was analyzed on a Clariostar microplater reader.
To study the effect of increasing CPBA concentrations in the absence of ferroptosis inducers on the viability of HT1080, Du145 or PC3 cells. Cells were incubated with the indicated concentrations of CPBA alone or in the presence of ferroptosis inhibitors deferoxamine (DFO, an iron-chelator and ferroptosis inhibitor); ferrostatin (fer, a ferroptosis inhibitor); liproxstatin-1 (lip-1, a ferroptosis inhibitor); or zVAD-FMK (a pan-caspase and apoptosis inhibitor), and cell viability was analyzed after 16 h.

HT1080 cells [2] = assay: Western blot of ferroptosis regulators GPX4, ACSL4 and FSP1; assay type: cell-based, human; conditions: 100 μM CPBA; 16 h; liproxstatin-1 100 nM
Procedure: Cultured cells were lysed in 50 mM Tris, pH 7.5; 150 mM NaCl; 1% (v/v) Triton X-100; 0.5% (w/v) sodium deoxycholate; 0.1% (w/v) sodium dodecyl sulfate; 5 μg/mL aprotinin, 1 μg/mL leupeptin, 1 μg/mL pepstatin, and 1 mM 4-(2-aminoethyl)benzenesulfonyl fluoride (Pefabloc). Protein concentrations were determined using the Micro BCA Protein Assay Kit (Thermo Fisher Scientific). Proteins were separated by SDS-PAGE, transferred to nitrocellulose membranes by semidry-blotting, and incubated with the indicated antibodies.
Western blots were quantified using the public domain NIH Image program (developed at the U.S. National Institutes of Health, http://rsb.info.nih.gov/nih-image/). Statistical analysis was performed using GraphPad Prism version 7.05 or 9.1.2 (GraphPad, San Diego, CA, USA).
HT1080 cells were cultured in the presence of liproxstatin-1 (100 nM), and incubated for 16 h with the solvent control DMSO (0.1%), RSL3 (1 μM), FIN56 (10 μM), or BSO (100 μM) in the presence of either 0.1% DMSO (−) or 100 μM CPBA (+). Cells were lysed and probed with the indicated antibodies as described above. […] Quantification of relative intensity of Western Blot bands was performed as described above (see FIG. 7).

HT1080 cells [3] = assay: Lipid peroxidation, BODIPY 581/591-C11 probe, flow cytometry; assay type: cell-based, human; conditions: 100 μM CPBA; 16 h; subeffective RSL3, FIN56 or BSO
Procedure: Approximately 10,000 HT1080 cells were seeded per well of a 48-well dish. The next day, cells were treated for 16 h with DMSO (0.1%, solvent control), CPBA (100 μM), or liproxstatin-1 (100 nM) in the absence or presence of subeffective concentrations of RSL3 (50 nM), FIN56 (50 nM), or BSO (1 μM). Cells were incubated with the BODIPY 581/591-C11 probe (1 μM) for 30 min at 37° C. in a tissue culture incubator, harvested by trypsinization, and resuspended in 500 μL phosphate-buffered saline supplemented with 0.5 mg/mL soybean trypsin inhibitor (Sigma Aldrich). Cells were analyzed using the 488-nm laser of a flow cytometer (FACSCalibur, BD Biosciences) for excitation. […] At least 5,000 cells were analyzed per sample. […]
Effects of CPBA on cellular lipid peroxidation were investigated using a BODIPY 581/591-C11 probe as described above. […] Oxidation of the polyunsaturated butadienyl portion of the dye results in a shift of the fluorescence emission peak from about 595 nm (nonoxidized form) to about 520 nm (oxidized form) (see FIG. 8).
HT1080 cells were incubated for 16 h with DMSO (0.1%, solvent control), CPBA (100 μM), or liproxstatin-1 (lip-1, 100 nM) in the absence or presence of subeffective concentrations of RSL3 (50 nM), FIN56 (50 nM), or BSO (1 μM). Fluorescence intensity was quantified by flow cytometry using a 530 nm band-pass filter as described above and quantified. […]

HT1080 cells [4] = assay: FIN56-induced cell death with or without DGAT1/2 inhibitors; assay type: cell-based, human; conditions: CPBA versus CPBA+iDGAT1/2
Procedure: as §1
The diglyceride acyltransferase isoforms 1 and 2 (DGAT1, DGAT2) are required to catalyze the formation of triglycerides from diacylglycerol and acyl-CoA.

[5] = system: HT1080 GPX4-knockout (KO) cells; assay: Viability of GPX4-knockout cells after α-tocopherol wash-out; assay type: cell-based, human; conditions: 100 μM CPBA; 48-120 h after α-tocopherol wash-out
Procedure: The following HT1080 fibrosarcoma cell lines were generated using CRISPR/Cas9 technology, as previously described (Doll et al., 2019): HT1080 GPX4-knockout (KO) cells (maintained in the presence of 100 μM α-tocopherol); HT1080 GPX4 knockout cells overexpressing FSP1 (GPX4-KO/FSP1-OE); GPX4-KO cells overexpressing FSP1 and re-expressing GPX4 (GPX4-KO/FSP1-OE/GPX4-OE); HT1080 FSP1-WT or FSP1-KO cells; and HT1080 FSP1-KO cells reconstituted with either FSP1-WT or FSP1-G2A. LOX-IMVI (BRAF V600E heterozygous human melanoma cells) expressing either the Venus mock vector or FSP1-Venus (Doll et al., 2019) were grown in RPMI-1640 supplemented with 10% FCS, 2 mM L-glutamine and Pen/Strep.
In order to study the effect of CPBA-induced sensitization to ferroptosis in the absence of the ferroptosis suppressor GPX4, we generated HT1080 GPX4-knockout (KO) cells using CRISPR/Cas9 technology as described above. Lack of GPX4 expression in GPX4-KO cell lines was confirmed by Western Blot as described above (see FIG. 11). […] Cell viability was assessed at 48 h, 72 h, 96 h and 120 h using AquaBluer.

**Q.** How did the “cell death with the compound alone” value ([1]; 400 μM CPBA) turn out when `O=C(Nc1ccccc1C(=O)O)c1ccc(Oc2ccc(C(=O)Nc3ccccc3C(=O)O)cc2)cc1` [CPBA, 2-[[4-[4-[(2-carboxyphenyl)carbamoyl]phenoxy]benzoyl]amino]-benzoic acid] was run?
**A.** Its value is “Non-ferroptotic, non-apoptotic cell death is observed”.

**Q.** And the “concentrations at which the compound alone is not cytotoxic” value ([1]; no ferroptosis inducers)?
**A.** The value was “up to 200 μM”.

**Q.** And the “expression of GPX4, ACSL4 and FSP1” value (HT1080 cells [2])?
**A.** Its value is “not affected by the presence of CPBA”.

**Q.** And the “amount of lipid peroxidation” value (HT1080 cells [3])?
**A.** Its value is “the amount of lipid peroxidation in the cells is increased”.

**Q.** What about the “influence of lipid droplets on sensitization to FIN56-induced cell death” value (HT1080 cells [4]) of the same compound?
**A.** The value was “the absence or presence of lipid droplets did not influence the CPBA-mediated sensitization of HT1080 cells to FIN56-induced cell death”.

**Q.** And the “ferroptosis in the absence of GPX4” value [5]?
**A.** The value was “accelerates ferroptosis in the absence of GPX4”.
